Assay results: ChEMBL document CHEMBL1139381 (J Med Chem, 2009)

What was measured:
Plasmodium falciparum [1] = experiment: Antimalarial activity after 72 hrs against chloroquine-sensitive Plasmodium falciparum D10 infected human A+ erythrocytes in Makler LDH reporter assay; assay type: functional, organism-based; settings: D10, 72 h
Plasmodium falciparum [2] = experiment: Antimalarial activity after 72 hrs against chloroquine-resistant Plasmodium falciparum W2 infected human A+ erythrocytes by Makler LDH reporter assay; assay type: functional, organism-based; settings: W2, 72 h
Plasmodium falciparum [3] = experiment: Antimalarial activity after 48 hrs against chloroquine-sensitive Plasmodium falciparum NF54 infected human A+ erythrocytes by [3H]hypoxanthine uptake; assay type: functional, organism-based
Plasmodium falciparum [4] = experiment: Antimalarial activity after 48 hrs against chloroquine-resistant asynchronous Plasmodium falciparum K1 infected human A+ erythrocytes by [3H]hypoxanthine uptake; assay type: functional, organism-based
Plasmodium chabaudi [5] = experiment: Antimalarial activity as reduced parasitaemia against Plasmodium chabaudi AS infected CD1 mice (Mus musculus) at 50 mg/kg/day peroral dose; assay type: functional; set-up: scale not given: the % may be the effect or the level left; settings: route oral
Plasmodium berghei [6] = experiment: Antimalarial activity as reduced parasitaemia against Plasmodium berghei ANKA infected CD1 mice (Mus musculus) at 150 mg/kg/day oral dose over 4 days; set-up: scale not given: the % may be the effect or the level left
Plasmodium falciparum [7] = experiment: Antimalarial activity after 24 hrs against chloroquine-sensitive Plasmodium falciparum 3D7 infected human A+ erythrocytes by [3H]hypoxanthine uptake; assay type: functional, organism-based
Plasmodium falciparum [8] = experiment: Antimalarial activity after 24 hrs against chloroquine-resistant synchronous Plasmodium falciparum K1 infected human A+ erythrocytes by [3H]hypoxanthine uptake; assay type: functional, organism-based
[9] = Cytotoxicity against mouse NSO cells by MTT assay; assay type: cell-based; settings: read-out: TC50 (the source's name)
[10] = Cytotoxicity against human Daudi cells by MTT assay; assay type: cell-based; settings: read-out: TC50 (the source's name)
[11] = Cytotoxicity against PHA-stimulated human lymphocytes by MTT assay; assay type: cell-based, Lymphocyte; settings: read-out: TC50 (the source's name)
Plasmodium berghei [12] = experiment: Antimalarial activity as reduced parasitaemia against Plasmodium berghei ANKA infected CD1 mice (Mus musculus) at 50 mg/kg/day peroral dose over 4 days; assay type: functional; set-up: scale not given: the % may be the effect or the level left; settings: route oral
Plasmodium berghei [13] = experiment: Antimalarial activity as increased survival against Plasmodium berghei ANKA infected CD1 mice (Mus musculus) at 50 mg/kg/day peroral dose over 4 days; assay type: functional; settings: route oral
[14] = biological target: T1, Histidine-rich protein PFHRP-II (Plasmodium falciparum) (UniProt P05227); experiment: Inhibition of beta-hematin assessed as molar equivalents at pH 2.7 after 18 hrs by spectrophotometric microassay relative to hemin; assay type: functional
T1 sequence (whole entry): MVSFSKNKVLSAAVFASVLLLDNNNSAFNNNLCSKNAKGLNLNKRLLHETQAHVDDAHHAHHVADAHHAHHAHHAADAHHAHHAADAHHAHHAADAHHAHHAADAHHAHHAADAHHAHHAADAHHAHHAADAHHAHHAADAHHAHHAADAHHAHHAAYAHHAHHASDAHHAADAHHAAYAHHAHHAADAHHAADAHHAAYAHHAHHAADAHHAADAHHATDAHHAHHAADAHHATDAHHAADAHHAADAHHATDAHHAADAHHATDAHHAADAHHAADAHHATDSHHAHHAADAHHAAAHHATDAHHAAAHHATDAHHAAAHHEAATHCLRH

[15] = Apparent volume of distribution in CD-COBS rat at 5 mg/kg, iv; assay type: ADME, organism-based; set-up: dose 5 mg/kg, route intravenous; settings: in vivo
[16] = Elimination half life in CD-COBS rat at 5 mg/kg, iv; assay type: ADME, organism-based; set-up: dose 5 mg/kg, route intravenous; settings: in vivo
[17] = Ratio of drug level in blood to plasma of CD-COBS rat at 5 mg/kg, iv; assay type: ADME, organism-based; set-up: dose 5 mg/kg, route intravenous; settings: blood and plasma
Rattus norvegicus = experiment: AUC (0 to t) in CD-COBS rat at 50 mg/kg, po after 60 mins; assay type: ADME, organism-based, Plasma; set-up: time < 1 hr, dose 50 mg/kg, route oral; settings: in vivo, 1 h
[18] = Cmax in CD-COBS rat at 50 mg/kg, po after 60 mins; assay type: ADME, organism-based; set-up: time < 1 hr, dose 50 mg/kg, route oral; settings: in vivo, read-out: AUC
Mus musculus = experiment: AUC (0 to t) in CD1 albino mouse at 50 mg/kg, po after 60 mins; assay type: ADME, organism-based, Plasma; set-up: time < 1 hr, dose 50 mg/kg, route oral; settings: in vivo, 1 h
[19] = Cmax in CD1 albino mouse at 50 mg/kg, po after 60 mins; assay type: ADME, organism-based; set-up: dose 50 mg/kg, route oral; settings: in vivo
Liver [20] = experiment: AUC (0 to t) in CD1 albino mouse liver at 50 mg/kg, po after 180 mins; assay type: ADME, organism-based; set-up: time < 3 hr, dose 50 mg/kg, route oral; settings: in vivo, 3 h
Liver [21] = experiment: AUC (0 to t) in CD-COBS rat liver at 50 mg/kg, po after 180 mins; assay type: ADME, organism-based; set-up: time < 3 hr, dose 50 mg/kg, route oral; settings: in vivo, 3 h
[22] = Ratio of drug level in liver to plasma of CD-COBS rat at 50 mg/kg, po after 180 mins; assay type: ADME, organism-based; set-up: dose 50 mg/kg, route oral; settings: liver and plasma
[23] = Ratio of drug level in liver to plasma of CD1 albino mouse at 50 mg/kg, po after 180 mins; assay type: ADME, organism-based; set-up: dose 50 mg/kg, route oral; settings: liver and plasma
[24] = Liver concentration in CD-COBS rat at 50 mg/kg, po after 180 mins
[25] = Liver concentration in CD1 albino mouse at 50 mg/kg, po after 180 mins
[26] = Cytotoxicity against human KB cells by MTT assay; assay type: cell-based; settings: read-out: TC50 (the source's name)
Plasmodium chabaudi [27] = experiment: Antimalarial activity as reduced parasitaemia against Plasmodium chabaudi AS infected CD1 mice (Mus musculus) at 10 mg/kg/day peroral dose over 4 days; assay type: functional; set-up: scale not given: the % may be the effect or the level left; settings: route oral
Plasmodium berghei [28] = experiment: Antimalarial activity as increased survival against Plasmodium berghei ANKA infected CD1 mice (Mus musculus) at 10 mg/kg/day peroral dose over 4 days; assay type: functional; settings: route oral
Plasmodium berghei [29] = experiment: Antimalarial activity as reduced parasitaemia against Plasmodium berghei ANKA infected CD1 mice (Mus musculus) at 30 mg/kg/day intraperitoneal dose over 4 days; assay type: functional; set-up: scale not given: the % may be the effect or the level left

| Compound | IC50 (Plasmodium falciparum [1]) [nM] | IC50 (Plasmodium falciparum [2]) [nM] | IC50 (Plasmodium falciparum [3]) [nM] | IC50 (Plasmodium falciparum [4]) [nM] | Activity (Plasmodium chabaudi [5]) [%] | IC50 (Plasmodium falciparum [7]) [nM] | IC50 (Plasmodium falciparum [8]) [nM] | further results |
| --- | --- | --- | --- | --- | --- | --- | --- | --- |
| Clc1ccc(C(Nc2ccnc3cc(Cl)ccc23)c2ccc(CN3CCOCC3)cc2)cc1 (racemic) | 87 | 84 | 19 | 21 |  |  |  |  |
| Clc1ccccc1C(c1ccccc1)(c1ccccc1)n1ccnc1 [CLOTRIMAZOLE] |  |  |  |  | 6 |  |  | Activity (Plasmodium berghei [6]): 28.3% |
| Clc1cccc(C(Nc2ccnc3cc(Cl)ccc23)c2ccc(CN3CCOCC3)cc2)c1 (racemic) | 142 | 220 | 43 | 62 |  |  |  |  |
| Clc1cccc(C(Nc2ccnc3cc(Cl)ccc23)c2ccc(CN3CCCC3)cc2)c1 (racemic) | 21 | 22 | 12 | 16 | 98 | 24 | 65 | CC50 [9]: 23800 nM; CC50 [10]: 34600 nM; CC50 [11]: 54100 nM; Activity (Plasmodium berghei [12]): 98%; Survival (Plasmodium berghei [13]): 18 days; Ratio [14]: 1.33; Vd [15]: 48 L/kg; half-life [16]: 3 h; blood plasma ratio [17]: 1.1; AUC (Rattus norvegicus): 422 ng·h/mL; Cmax [18]: 180 ng/mL; AUC (Mus musculus): 725 ng·h/mL; Cmax [19]: 330 ng/mL; AUC (Liver [20]): 7061 µg/g; AUC (Liver [21]): 2945 µg/g; Kp at 3 h [22]: > 100; Kp at 3 h [23]: > 100; concentration at 3 h [24]: 30500 ng/g; concentration at 3 h [25]: 52200 ng/g |
| Clc1ccc(C(Nc2ccnc3cc(Cl)ccc23)c2ccc(CN3CCCC3)cc2)cc1 (racemic) | 46 | 72 | 13 | 14 | 99.5 | 3.7 | 9 | CC50 [9]: 8600 nM; CC50 [10]: 8600 nM; CC50 [11]: 17300 nM; CC50 [26]: 19600 nM; Vd [15]: 40 L/kg; half-life [16]: 0.733 h |
| FC(F)(F)c1ccc2c(NC(c3ccc(Cl)cc3)c3ccc(CN4CCCC4)cc3)ccnc2c1 (racemic) | 61 | 90 | 33 | 20 | 99.6 |  | 30 | CC50 [9]: 12100 nM; CC50 [10]: 14100 nM; CC50 [11]: 24200 nM; CC50 [26]: 5500 nM |
| COc1ccc2nccc(NC(c3ccc(CN4CCOCC4)cc3)c3cccc(Cl)c3)c2c1 (racemic) | 86 | 127 | 43 | 67 |  |  |  |  |
| COc1ccc2nccc(NC(c3ccc(Cl)cc3)c3ccc(CN4CCOCC4)cc3)c2c1 (racemic) | 67 | 65 | 33 | 54 |  |  |  |  |
| Clc1ccc(C(Nc2ccnc3cc(Cl)ccc23)(c2ccccc2)c2ccc(CN3CCCC3)cc2)cc1 (racemic) | 40 | 51 |  |  | 99.9 | 3 | 22 |  |
| CCN(CC)CCCC(C)Nc1ccnc2cc(Cl)ccc12 (stereo not given) [CHLOROQUINE] |  |  |  |  |  |  |  | CC50 [9]: 14900 nM; CC50 [10]: 16700 nM; CC50 [11]: 18600 nM; Activity (Plasmodium chabaudi [27]): 99.9%; Survival (Plasmodium berghei [28]): 16.3 days |
| COc1ccc2nccc(NC(c3ccc(CN4CCCC4)cc3)c3cccc(Cl)c3)c2c1 (racemic) | 40 | 55 | 39 | 65 |  |  |  |  |
| COc1ccc2nccc(NC(c3ccc(Cl)cc3)c3ccc(CN4CCCC4)cc3)c2c1 (racemic) | 57 | 82 | 32 | 32 |  | 8 | 60 | CC50 [26]: 8500 nM |
| Clc1ccc([C@](c2ccccc2)(c2ccc(CN3CCCC3)cc2)n2ccnc2)cc1 | 130 | 59 |  |  | 94.8 | 7 | 5 | Activity (Plasmodium berghei [29]): 37.6%; Ratio [14]: 2.5 |
| FC(F)(F)c1ccc2c(NC(c3ccc(CN4CCOCC4)cc3)c3cccc(Cl)c3)ccnc2c1 (racemic) | 234 | 304 |  |  |  |  |  |  |
| Clc1ccc(C(Nc2ccnc3cc(Cl)ccc23)(c2ccc(Cl)cc2)c2ccc(CN3CCCC3)cc2)cc1 | 48 | 56 | 16 | 28 |  |  |  |  |
| COc1ccc2nc3cc(Cl)ccc3c(NC(c3ccc(Cl)cc3)(c3ccc(Cl)cc3)c3ccc(CN4CCCC4)cc3)c2c1 | 143 | 149 | 135 | 199 |  |  |  |  |
| FC(F)(F)c1cc(NC(c2ccc(Cl)cc2)c2ccc(CN3CCCC3)cc2)c2cccc(C(F)(F)F)c2n1 (racemic) | 1240 | 1370 |  |  |  | 100 | 450 | CC50 [26]: 213000 nM |
| COc1ccc2nc3cc(Cl)ccc3c(NC(c3ccc(Cl)cc3)c3ccc(CN4CCCC4)cc3)c2c1 (racemic) | 49 | 59 | 19 | 20 | 99.9 | 1 | 8 | CC50 [9]: 11100 nM; CC50 [10]: 11100 nM; CC50 [11]: 16600 nM |
